This experiment has as its target T1, AHR (UniProt P35869).
T1 construct: IC50
T1 sequence (P35869 1-848): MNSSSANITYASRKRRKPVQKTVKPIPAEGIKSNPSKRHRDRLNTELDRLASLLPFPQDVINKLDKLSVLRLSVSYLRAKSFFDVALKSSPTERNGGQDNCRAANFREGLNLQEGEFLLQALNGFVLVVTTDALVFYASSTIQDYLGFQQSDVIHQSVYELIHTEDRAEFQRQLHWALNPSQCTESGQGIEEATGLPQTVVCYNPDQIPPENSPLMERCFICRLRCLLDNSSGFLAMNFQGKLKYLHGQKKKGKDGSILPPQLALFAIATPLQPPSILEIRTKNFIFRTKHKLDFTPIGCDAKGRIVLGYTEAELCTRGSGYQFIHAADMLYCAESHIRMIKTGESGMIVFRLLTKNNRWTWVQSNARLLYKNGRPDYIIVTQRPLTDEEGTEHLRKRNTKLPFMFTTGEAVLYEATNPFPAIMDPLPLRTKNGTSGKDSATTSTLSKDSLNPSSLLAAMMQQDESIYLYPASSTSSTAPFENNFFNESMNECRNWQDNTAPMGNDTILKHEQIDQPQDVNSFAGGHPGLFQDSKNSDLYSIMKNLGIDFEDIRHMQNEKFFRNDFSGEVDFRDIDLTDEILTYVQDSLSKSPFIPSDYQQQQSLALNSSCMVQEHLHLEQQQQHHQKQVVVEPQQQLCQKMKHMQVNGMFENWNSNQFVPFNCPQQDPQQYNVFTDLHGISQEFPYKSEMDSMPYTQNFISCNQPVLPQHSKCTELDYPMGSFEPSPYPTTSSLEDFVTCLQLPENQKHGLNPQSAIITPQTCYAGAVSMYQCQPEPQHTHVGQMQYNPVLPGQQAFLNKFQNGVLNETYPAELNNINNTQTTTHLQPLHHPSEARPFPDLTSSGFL
Put plainly: DRE-Luciferase Reporter Assay (Alternate Method) (Example 1B). The note with it: cell line and AHR activating ligand not specified. In kind it is cell-based, murine or human. Here is the method:
AHR binds to Dioxin Responsive Elements (DRE) upstream of genes that it activates. One measure of AHR activity is activation of a reporter gene, such as luciferase, downstream of one or multiple DRE elements. Luciferase activity will reflect activation and inhibition of AHR in the cells expressing his reporter.
Murine Hepa1-6 or Hepa-1c1c7 or other murine cell line with a DRE-luciferase reporter either stably or transiently transfected were plated in media in plates (96-well, 384-well or other plates) and incubated overnight at 37° C. in a CO2 incubator or compound and agonist were added at the time of plating. Likewise, human HepG2 or other human cell line with a DRE-luciferase reporter either stably or transiently transfected were plated in media in plates (96-well, 384-well or other plates) and incubated overnight at 37° C. in a CO2 incubator or compound and agonist were added at the time of plating.
At the time that cells are plated or following incubation overnight, an AHR activating ligand, such as TCDD, kynurenine, ITE (2-(1H-indole-3-ylcarbonyl)-4-thiazolecarboxylic methyl ester), VAF347, BNF (beta-naphthoflavone), FICZ (6-formylindolo(3,2-b) carbazole or other AHR ligands, was added with or without AHR antagonist.
Cells were incubated for 4, 15 or 24 hours or another time point and then lysed for determination of luciferase activity as a read-out of the AHR activation or inhibition. Luciferase was measured with a commercial kit such as the Promega Luciferase kit or any kit or reagents that provide the luciferin substrate for measuring luciferase activity. The level of luciferase with only activating ligand added was the maximum signal while the luciferase with no ligand was the minimum signal. IC50 values were determined as the concentration which inhibits half of the luciferase activity.
(Reporter assays use an easily measured gene product as a stand-in for the process of interest.)
On to `Fc1cncc(-c2cc(NC3Cc4cc5c(cc4C3)OCO5)n3nccc3n2)c1` [I-50, N-(6,7-Dihydro-5H-cyclopenta[f][1,3]benzodioxol-6-yl)-5-(5-fluoro-3-pyridyl)pyrazolo[1,5-a]pyrimidin-7-amine], for which the IC50 (in general, the concentration that inhibits the measured activity by half) is greater than 1500 nM.

Regarding `Cc1cnn2c(NC3Cc4ccc(O)cc4C3)cc(-c3cncc(F)c3)nc12` (stereo not shown) [I-51, 2-[[5-(5-Fluoro-3-pyridyl)-3-methyl-pyrazolo[1,5-a]pyrimidin-7-yl]amino]indan-5-ol], the IC50 was less than 500 nM.

`Oc1ccc2c(c1)CC(Nc1cc(-c3cncc(F)c3)nc3ccnn13)C2` (stereo not shown) [I-52, 2-[[5-(5-Fluoro-3-pyridyl)pyrazolo[1,5-a]pyrimidin-7-yl]amino]indan-5-ol] displayed an IC50 of 500 to 1000 nM.

The molecule `N#Cc1cncc(-c2nc(NCCc3c[nH]c4ccccc34)cc(OC3CCCC3)n2)c1` [I-53, 5-[4-(Cyclopentoxy)-6-[2-(1H-indol-3-yl)ethylamino]pyrimidin-2-yl]pyridine-3-carbonitrile] showed an IC50 of less than 500 nM.

As to `CC(C)Oc1cc(NCCc2c[nH]c3ccccc23)nc(-c2cncc(C#N)c2)n1` [I-54, 5-[4-[2-(1H-indol-3-yl)ethylamino]-6-isopropoxy-pyrimidin-2-yl]pyridine-3-carbonitrile], the IC50 was less than 500 nM.

Turning to `O=C(c1cnn2c(NCCc3c[nH]c4ccccc34)cc(-c3cncc(F)c3)nc12)N1CCCCC1` [I-55, [5-(5-Fluoro-3-pyridyl)-7-[2-(1H-indol-3-yl)ethylamino]pyrazolo[1,5-a]pyrimidin-3-yl]-(1-piperidyl)methanone], the IC50 is less than 500 nM.

For the molecule `CN(C)C(=O)c1cnn2c(NCCc3c[nH]c4ccccc34)cc(-c3cncc(F)c3)nc12` [I-56, 5-(5-Fluoro-3-pyridyl)-7-[2-(1H-indol-3-yl)ethylamino]-N,N-dimethyl-pyrazolo[1,5-a]pyrimidine-3-carboxamide], the IC50 is less than 500 nM.

As to `O=C(c1cnn2c(NCCc3c[nH]c4ccccc34)cc(-c3cncc(F)c3)nc12)N1CCNCC1` [I-58, [5-(5-Fluoro-3-pyridyl)-7-[2-(1H-indol-3-yl)ethylamino]pyrazolo[1,5-a]pyrimidin-3-yl]-piperazin-1-yl-methanone], the IC50 was greater than 1500 nM.

`Fc1cncc(-c2nc(NCCc3c[nH]c4ccccc34)cc(N3CCNCC3)n2)c1` [I-60, 2-(5-Fluoro-3-pyridyl)-N-[2-(1H-indol-3-yl)ethyl]-6-piperazin-1-yl-pyrimidin-4-amine]: the IC50 lay within 500 to 1000 nM.

`CNC(=O)c1cnn2c(NCCc3c[nH]c4ccccc34)cc(-c3cncc(F)c3)nc12` [I-61, 5-(5-Fluoro-3-pyridyl)-7-[2-(1H-indol-3-yl)ethylamino]-N-methyl-pyrazolo[1,5-a]pyrimidine-3-carboxamide] returned an IC50 of less than 500 nM.

For `Fc1cncc(-c2nc(NCCc3c[nH]c4ccccc34)cc(N3CCCCC3)n2)c1` [I-62, 2-(5-Fluoro-3-pyridyl)-N-[2-(1H-indol-3-yl)ethyl]-6-(1-piperidyl)pyrimidin-4-amine], the IC50 is less than 500 nM.

Take `CN(C)c1cc(NCCc2c[nH]c3ccccc23)nc(-c2cncc(F)c2)n1` [I-63, 2-(5-Fluoro-3-pyridyl)-N6-[2-(1H-indol-3-yl)ethyl]-N4,N4-dimethyl-pyrimidine-4,6-diamine]: the IC50 is less than 500 nM.

Consider `Fc1cncc(-c2nc(NCCc3c[nH]c4ccccc34)cc(N3CCOCC3)n2)c1` [I-64, 2-(5-Fluoro-3-pyridyl)-N-[2-(1H-indol-3-yl)ethyl]-6-morpholino-pyrimidin-4-amine], for which the IC50 is less than 500 nM.

`Cc1[nH]c2c(F)cccc2c1CCNc1cc(-c2cncc(F)c2)nc2c(C(C)C)cnn12` [I-66, N-[2-(7-fluoro-2-methyl-1H-indol-3-yl)ethyl]-5-(5-fluoro-3-pyridyl)-3-isopropyl-pyrazolo[1,5-a]pyrimidin-7-amine]: the concentration for half-maximal inhibition (IC50) is less than 500 nM.

On to `Cc1[nH]c2ccc(F)cc2c1CCNc1nc(-c2cncc(F)c2)nc2c1ncn2C(C)C` [I-69, N-[2-(5-Fluoro-2-methyl-1H-indol-3-yl)ethyl]-2-(5-fluoro-3-pyridyl)-9-isopropyl-purin-6-amine], for which the IC50 is less than 500 nM.

Regarding `Cc1[nH]c2c(F)cccc2c1CCNc1nc(-c2cncc(F)c2)nc2c1ncn2C(C)C` [I-71, N-[2-(7-Fluoro-2-methyl-1H-indol-3-yl)ethyl]-2-(5-fluoro-3-pyridyl)-9-isopropyl-purin-6-amine], the IC50 is less than 500 nM.

`Cc1[nH]c2c(F)cc(F)cc2c1CCNc1cc(OC(C)C)nc(-c2cncc(F)c2)n1` [I-74, N-[2-(5,7-Difluoro-2-methyl-1H-indol-3-yl)ethyl]-2-(5-fluoro-3-pyridyl)-6-isopropoxy-pyrimidin-4-amine] registered an IC50 of 500 to 1000 nM.

Consider `CC(C)c1cnn2c(N[C@H]3CCc4[nH]c5ccccc5c4C3)cc(-c3cncc(F)c3)nc12` [I-75b, (3S)—N-[5-(5-Fluoro-3-pyridyl)-3-isopropyl-pyrazolo[1,5-a]pyrimidin-7-yl]-2,3,4,9-tetrahydro-1H-carbazol-3-amine], for which the IC50 was greater than 1500 nM.

Molecule `Cc1[nH]c2ccccc2c1CCNc1nc(-c2cncc(F)c2)nc2c1ncn2C(C)C` [I-79, 2-(5-Fluoro-3-pyridyl)-9-isopropyl-N-[2-(2-methyl-1H-indol-3-yl)ethyl]purin-6-amine] came in with an IC50 of less than 500 nM.

`CC(C)Oc1nc(NCCc2c[nH]c3ccccc23)cc(-c2cncc(F)c2)n1` [I-80, 6-(5-Fluoro-3-pyridyl)-N-[2-(1H-indol-3-yl)ethyl]-2-isopropoxy-pyrimidin-4-amine]: the IC50 is 500 to 1000 nM.

On to `Cc1nn2c(NCCc3c[nH]c4ccccc34)cc(-c3cncc(F)c3)nc2c1C(C)C` [I-83, 5-(5-Fluoro-3-pyridyl)-N-[2-(1H-indol-3-yl)ethyl]-3-isopropyl-2-methyl-pyrazolo[1,5-a]pyrimidin-7-amine], for which the IC50 is less than 500 nM.

In turn, `Cc1nn2c(NCCc3c(C)[nH]c4c(F)cc(F)cc34)cc(-c3cncc(F)c3)nc2c1C(C)C` [I-84, N-[2-(5,7-Difluoro-2-methyl-1H-indol-3-yl)ethyl]-5-(5-fluoro-3-pyridyl)-3-isopropyl-2-methyl-pyrazolo[1,5-a]pyrimidin-7-amine] displayed an IC50 greater than 1500 nM.

In turn, `Cc1[nH]c2c(F)cc(F)cc2c1CCNc1cc(-c2cncc(F)c2)nc2ccnn12` [I-85, N-(2-(5,7-Difluoro-2-methyl-1H-indol-3-yl)ethyl)-5-(5-fluoropyridin-3-yl)pyrazolo[1,5-a]pyrimidin-7-amine] registered an IC50 of 500 to 1000 nM.

On to `Fc1cncc(-c2cc(NCCc3c[nH]c4ccccc34)n3ncc(C4CC4)c3n2)c1` [I-86, 3-Cyclopropyl-5-(5-fluoro-3-pyridyl)-N-[2-(1H-indol-3-yl)ethyl]pyrazolo[1,5-a]pyrimidin-7-amine], for which the IC50 is less than 500 nM.

On to `Cc1[nH]c2c(F)cc(F)cc2c1CCNc1cc(-c2cncc(F)c2)nc2c(C3CC3)cnn12` [I-87, 3-Cyclopropyl-N-(2-(5,7-difluoro-2-methyl-1H-indol-3-yl)ethyl)-5-(5-fluoropyridin-3-yl)pyrazolo[1,5-a]pyrimidin-7-amine], for which the IC50 was less than 500 nM.

The molecule `CC(C)Oc1cc(NCCc2c[nH]c3c(F)cc(F)cc23)nc(-c2cncc(F)c2)n1` [I-88, N-[2-(5,7-Difluoro-1H-indol-3-yl)ethyl]-2-(5-fluoro-3-pyridyl)-6-isopropoxy-pyrimidin-4-amine] came in with an IC50 of 500 to 1000 nM.

Regarding `Cc1[nH]c2ccccc2c1CCNc1cc(-c2cncc(F)c2)nc2c(C(C)C)cnn12` [I-89, 5-(5-fluoro-3-pyridyl)-3-isopropyl-N-[2-(2-methyl-1H-indol-3-yl)ethyl]pyrazolo[1,5-a]pyrimidin-7-amine], the IC50 was less than 500 nM.

In the case of `Cc1[nH]c2c(F)cc(F)cc2c1CCNc1cc(-c2cncc(F)c2)nc2c(C(C)(C)C)cnn12` [I-91, 3-tert-Butyl-N-[2-(5,7-difluoro-2-methyl-1H-indol-3-yl)ethyl]-5-(5-fluoro-3-pyridyl)pyrazolo[1,5-a]pyrimidin-7-amine], the IC50 was less than 500 nM.

Values taken from patent publication US11358969B2, “Indole AHR inhibitors and uses thereof” (Ikena Oncology, Inc., priority 2017, dated 2022).
